Molecules are shown by their SMILES. “Also recorded” adds a separate entry of the source.

Among the data in US20160146819A1, “CLASSIFICATION SYSTEM, METHODS AND KIT FOR CLASSIFYING, PREDICTING AND TREATING BREAST CANCER” (UNIVERSITY OF MIAMI, priority 2013, published 2016) are cell proliferation values, retold here.

This assay deals with MDA-MB-453 breast cancer cell line (HR2+/HER2+, ER-negative). The assay can be described thus: Cell proliferation assay, MDA-MB-453 cells. The assay is classed as cell-based, human. The note with it: MDA-MB-453 (ER-negative control); ICI 182,780 100 nM alone.

Description: All cell lines were cultured according to ATCC's guidelines. BT20, HCC1187, MDAMB468 and SUM159 cells were trypsinized with 0.05% trypsin/EDTA and plated at appropriate densities (BT20: 6,000, HCC1187: 10,000, MDAMB468: 4,000 and SUM159: 1,000 cells/well) in 96 well plates in DMEM+10% FBS. The next day Calcitriol and Taxol were added at concentrations of 25 nM and 1.5 nM respectively (Day0). For ZR75B, 4000 cells/well were plated in 96 well plates in DMEM+10% FBS. […] Calcitriol and 5 nM IC1180,782 were added the next day with fresh medium (Day0). Media was refreshed every two days and cell proliferation assay was performed on day 6 for above cell lines. The T47D cells were trypsinized with phenol red free Triple Express (Invitrogen) and washed once with PBS and 10,000 cells/well were plated in phenol red free DMEM+5% charcoal stripped FBS (CSFBS) in 96 well plates and cultured for 3 days. On the fourth day, 10 nM 17 beta estradiol (E2) was added into all the wells except non-drug treatment group, in addition to 10 nM IC1180,782, 10 nM R1881 and 50 nM Calcitriol in different groups with fresh phenol red free DMEM+5% CSFBS (Day0). […] All the proliferation assays were carried out using cell titer blue reagent (Promega) and fluorescence was measured using Bio-Tek spectrophotometer at 530/25 nm (excitation) and 590/35 nm (emission). […]

Consider `C[C@]12CC[C@@H]3c4ccc(O)cc4C[C@@H](CCCCCCCCC[S+]([O-])CCCC(F)(F)C(F)(F)F)[C@H]3[C@@H]1CC[C@@H]2O` (stereo partly shown) [ICI 182,780], for which the cell proliferation result was “no inhibition was observed; also recorded: no inhibition of cell proliferation”.
